Test results as given in US12303500B2, “Method for improving stability of low-concentration atropine ophthalmic preparation” (SHENYANG XINGQI PHARMACEUTICAL CO., LTD., priority 2018, dated 2025).
Counter-ions that a name gives are not always drawn. Like-named read-outs stand apart in the source and are kept apart here.

Details: 40°C±2°C, RH 75%±5%
Excerpt: In the chromatogram of the sample solution, the chromatographic peaks with peak area smaller than 0.5 times of the main peak area of the control solution should be ignored.

For `CN1[C@@H]2CC[C@H]1C[C@@H](OC(=O)C(CO)c1ccccc1)C2` (stereo partly drawn) [Example 160903-P01, atropine sulfate], the Content (0th month) was 100.3%, the Hyoscyamine (0th month) was “+0.002°” and the Moisture (0th month) was 3.15%. The Content (1st month) was 100.3%, the Hyoscyamine (1st month) was “+0.002°” and the Moisture (1st month) was 3.24%. For the same molecule, the Content (2nd month) was 100.2%, the Hyoscyamine (2nd month) was “+0.001°” and the Moisture (2nd month) was 2.97%. For the same molecule, the Content (3rd month) was 100.4%, the Hyoscyamine (3rd month) was 0.000° and the Moisture (3rd month) was 3.49%. For the same molecule, the Content (6th month) was 100.3%, the Hyoscyamine (6th month) was 0.000° and the Moisture (6th month) was 3.69%.
